We go through 1 compound from PMC9977574 (Gut, 2022).

The assay deals with FKBP8 (FK506 binding protein 8) (Homo sapiens, UniProt Q14318). The assay is described as follows: microscale thermophoresis competition with recombinant proteins. In general terms: Microscale thermophoresis detects binding through changes in fluorescence in a small temperature gradient.
FKBP8 (FK506 binding protein 8), sequence (Q14318 whole entry): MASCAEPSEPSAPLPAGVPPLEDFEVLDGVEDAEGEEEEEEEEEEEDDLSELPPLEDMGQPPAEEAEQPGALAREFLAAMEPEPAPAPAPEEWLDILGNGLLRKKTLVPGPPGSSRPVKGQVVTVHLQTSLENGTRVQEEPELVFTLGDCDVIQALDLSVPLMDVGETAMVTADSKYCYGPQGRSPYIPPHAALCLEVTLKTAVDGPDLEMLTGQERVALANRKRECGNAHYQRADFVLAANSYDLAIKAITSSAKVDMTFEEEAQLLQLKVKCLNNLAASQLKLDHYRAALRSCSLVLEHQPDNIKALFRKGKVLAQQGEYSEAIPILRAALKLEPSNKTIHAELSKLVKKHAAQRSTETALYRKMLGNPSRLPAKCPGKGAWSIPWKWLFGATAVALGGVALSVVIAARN
FKBP8 (FK506 binding protein 8), sequence (Q15746 whole entry partner): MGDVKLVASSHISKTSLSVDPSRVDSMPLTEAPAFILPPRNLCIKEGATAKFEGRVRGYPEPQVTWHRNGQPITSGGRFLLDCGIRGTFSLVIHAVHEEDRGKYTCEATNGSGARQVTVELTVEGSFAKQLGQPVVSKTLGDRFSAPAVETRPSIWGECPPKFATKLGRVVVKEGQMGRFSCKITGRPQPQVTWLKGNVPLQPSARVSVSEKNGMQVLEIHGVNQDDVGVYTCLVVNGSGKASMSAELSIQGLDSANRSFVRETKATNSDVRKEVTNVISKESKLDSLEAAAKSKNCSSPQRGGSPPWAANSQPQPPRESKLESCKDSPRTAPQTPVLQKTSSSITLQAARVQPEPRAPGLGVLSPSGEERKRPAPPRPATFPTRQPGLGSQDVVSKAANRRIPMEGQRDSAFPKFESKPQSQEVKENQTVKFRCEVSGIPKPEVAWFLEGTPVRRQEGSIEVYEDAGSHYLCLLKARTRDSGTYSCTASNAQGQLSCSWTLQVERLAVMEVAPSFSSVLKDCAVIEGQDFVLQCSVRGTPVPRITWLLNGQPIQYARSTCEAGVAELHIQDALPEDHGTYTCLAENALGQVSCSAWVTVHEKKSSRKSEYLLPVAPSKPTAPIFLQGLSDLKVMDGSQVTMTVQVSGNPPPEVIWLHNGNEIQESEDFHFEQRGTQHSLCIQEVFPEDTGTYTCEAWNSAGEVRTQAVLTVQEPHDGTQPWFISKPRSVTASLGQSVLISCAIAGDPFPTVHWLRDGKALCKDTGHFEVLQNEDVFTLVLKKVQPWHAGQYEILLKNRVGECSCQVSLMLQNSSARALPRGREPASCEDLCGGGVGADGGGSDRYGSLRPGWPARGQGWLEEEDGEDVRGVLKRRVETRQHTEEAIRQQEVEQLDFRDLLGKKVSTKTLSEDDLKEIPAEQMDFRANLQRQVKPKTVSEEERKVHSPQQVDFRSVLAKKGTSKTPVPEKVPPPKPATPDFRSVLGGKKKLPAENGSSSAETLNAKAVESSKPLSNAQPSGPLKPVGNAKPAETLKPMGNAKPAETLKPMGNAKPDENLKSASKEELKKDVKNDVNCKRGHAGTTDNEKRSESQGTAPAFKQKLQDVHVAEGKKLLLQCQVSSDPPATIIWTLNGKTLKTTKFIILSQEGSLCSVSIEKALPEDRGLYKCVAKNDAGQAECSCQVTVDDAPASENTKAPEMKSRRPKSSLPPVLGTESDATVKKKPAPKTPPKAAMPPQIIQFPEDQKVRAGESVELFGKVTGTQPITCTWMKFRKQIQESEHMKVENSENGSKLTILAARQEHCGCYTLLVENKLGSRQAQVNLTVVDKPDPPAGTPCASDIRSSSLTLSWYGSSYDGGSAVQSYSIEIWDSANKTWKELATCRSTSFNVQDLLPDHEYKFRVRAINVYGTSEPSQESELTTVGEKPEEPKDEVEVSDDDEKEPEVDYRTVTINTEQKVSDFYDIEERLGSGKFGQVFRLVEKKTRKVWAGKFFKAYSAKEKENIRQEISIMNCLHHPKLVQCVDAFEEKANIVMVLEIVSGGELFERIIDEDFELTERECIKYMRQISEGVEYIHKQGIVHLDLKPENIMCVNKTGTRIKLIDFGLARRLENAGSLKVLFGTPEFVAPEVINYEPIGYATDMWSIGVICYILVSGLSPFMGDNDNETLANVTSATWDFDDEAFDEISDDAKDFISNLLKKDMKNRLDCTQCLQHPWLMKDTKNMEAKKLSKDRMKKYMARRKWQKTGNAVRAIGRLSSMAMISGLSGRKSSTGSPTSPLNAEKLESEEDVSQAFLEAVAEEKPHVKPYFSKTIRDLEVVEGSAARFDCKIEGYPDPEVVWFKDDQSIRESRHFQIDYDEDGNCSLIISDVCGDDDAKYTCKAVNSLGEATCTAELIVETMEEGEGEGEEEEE

With `C=CC[C@@H]1/C=C(\C)C[C@H](C)C[C@H](OC)[C@H]2O[C@@](O)(C(=O)C(=O)N3CCCC[C@H]3C(=O)O[C@H](/C(C)=C/[C@@H]3CC[C@@H](O)[C@H](OC)C3)[C@H](C)[C@@H](O)CC1=O)[C@H](C)C[C@@H]2OC` [tacrolimus], the IC50 stood at 68.7 ± 13.3 µM.

For orientation: IC50 means the concentration needed to halve the response being measured.
